From patent US20250289806A1, “COMPOUNDS FOR PROLIFERATIVE DISORDERS” (UNIVERSITY OF MIAMI, priority 2022, published 2025)
Like-named read-outs stand apart in the source and are kept apart here.

Legend:
KMS12BM = assay: Cell viability assay, KMS12BM; assay type: cell-based; conditions: Homo sapiens, KMS-12-BM
K562 = assay: Cell viability assay, K562; assay type: cell-based; conditions: Homo sapiens
MV-4-11 = assay: Cell viability assay, MV-4-11; assay type: cell-based; conditions: Homo sapiens, MV4-11
HEL = assay: Cell viability assay, HEL; assay type: cell-based; conditions: Homo sapiens
U266B1 = assay: Cell viability assay, U266B1; assay type: cell-based
DDR1 = target: T1, DDR1 (Homo sapiens, UniProt Q08345); assay: Enzymatic activity assay (Reaction Biology Corporation), DDR1; assay type: biochemical
T1 construct: purchased Reaction Biology Corporation
T1 sequence (Q08345 19-913): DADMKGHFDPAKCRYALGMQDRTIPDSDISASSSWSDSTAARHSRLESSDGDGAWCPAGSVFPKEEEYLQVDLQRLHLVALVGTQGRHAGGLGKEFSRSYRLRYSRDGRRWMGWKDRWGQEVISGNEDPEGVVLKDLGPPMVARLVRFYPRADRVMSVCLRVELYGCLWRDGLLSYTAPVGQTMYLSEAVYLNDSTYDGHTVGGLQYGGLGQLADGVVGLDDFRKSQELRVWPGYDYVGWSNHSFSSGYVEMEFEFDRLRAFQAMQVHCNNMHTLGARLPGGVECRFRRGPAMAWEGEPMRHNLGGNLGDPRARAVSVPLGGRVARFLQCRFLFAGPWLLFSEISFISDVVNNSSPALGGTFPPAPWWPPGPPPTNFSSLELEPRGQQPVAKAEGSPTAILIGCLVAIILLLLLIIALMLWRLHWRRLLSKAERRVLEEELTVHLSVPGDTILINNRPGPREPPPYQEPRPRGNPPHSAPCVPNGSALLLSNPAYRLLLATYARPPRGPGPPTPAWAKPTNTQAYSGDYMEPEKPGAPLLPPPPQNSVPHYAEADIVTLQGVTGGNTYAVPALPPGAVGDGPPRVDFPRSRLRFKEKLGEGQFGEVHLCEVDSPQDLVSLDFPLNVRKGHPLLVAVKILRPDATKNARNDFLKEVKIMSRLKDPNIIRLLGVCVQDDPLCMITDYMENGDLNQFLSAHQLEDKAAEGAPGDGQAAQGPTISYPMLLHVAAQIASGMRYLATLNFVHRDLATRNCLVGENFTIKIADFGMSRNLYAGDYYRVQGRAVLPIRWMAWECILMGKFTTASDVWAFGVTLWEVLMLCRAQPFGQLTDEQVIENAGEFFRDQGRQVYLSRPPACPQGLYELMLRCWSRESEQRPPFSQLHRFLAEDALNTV
Method: (§1) All enzymatic assays and panel profiling studies are activity assays, which were carried out by Reaction Biology Corporation according to the company's protocols.

KMS12PE = assay: Cell viability assay, KMS12PE; assay type: cell-based; conditions: Homo sapiens, KMS-12-PE
OCI-AML3 = assay: Cell viability assay, OCI-AML3; assay type: cell-based; conditions: Homo sapiens, OCI-AML-3
BJAB = assay: Cell viability assay, BJAB; assay type: cell-based; conditions: Homo sapiens
OPM2 = assay: Cell viability assay, OPM2; assay type: cell-based; conditions: Homo sapiens, OPM-2
LP1 = assay: Cell viability assay, LP1; assay type: cell-based; conditions: Homo sapiens, LP-1
RPMI8226 = assay: Cell viability assay, RPMI8226; assay type: cell-based; conditions: Homo sapiens, RPMI-8226
MOLT4 = assay: Cell viability assay, MOLT4; assay type: cell-based; conditions: Homo sapiens
Jurkat = assay: Cell viability assay, Jurkat; assay type: cell-based; conditions: Homo sapiens
TF1 = assay: Cell viability assay, TF1; assay type: cell-based; conditions: Homo sapiens, TF-1
Kasumi-1 = assay: Cell viability assay, Kasumi-1; assay type: cell-based; conditions: Homo sapiens
MYLK4 = target: T2, MYLK4 (Homo sapiens, UniProt Q86YV6); assay: Enzymatic activity assay (Reaction Biology Corporation), MYLK4; assay type: biochemical
T2 construct: purchased Reaction Biology Corporation
T2 sequence (Q86YV6 1-388): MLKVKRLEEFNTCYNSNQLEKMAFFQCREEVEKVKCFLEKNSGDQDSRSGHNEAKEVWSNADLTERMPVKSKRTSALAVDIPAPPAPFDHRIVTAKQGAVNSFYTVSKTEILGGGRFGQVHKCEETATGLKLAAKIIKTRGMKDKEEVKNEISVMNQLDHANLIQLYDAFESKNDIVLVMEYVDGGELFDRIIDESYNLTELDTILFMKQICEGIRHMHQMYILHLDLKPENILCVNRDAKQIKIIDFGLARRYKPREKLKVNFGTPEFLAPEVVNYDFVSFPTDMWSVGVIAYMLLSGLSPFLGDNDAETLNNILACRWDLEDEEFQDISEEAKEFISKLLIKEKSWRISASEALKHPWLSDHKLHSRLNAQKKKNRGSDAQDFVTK
Method: as §1

THP-1 = assay: Cell viability assay, THP-1; assay type: cell-based; conditions: Homo sapiens
STK17A = target: T3, STK17A (Homo sapiens, UniProt Q9UEE5); assay: Enzymatic activity assay (Reaction Biology Corporation), STK17A; assay type: biochemical; conditions: enzymatic activity assay; read-out: IC50 STK17A
T3 construct: purchased Reaction Biology Corporation
T3 sequence (Q9UEE5 1-414): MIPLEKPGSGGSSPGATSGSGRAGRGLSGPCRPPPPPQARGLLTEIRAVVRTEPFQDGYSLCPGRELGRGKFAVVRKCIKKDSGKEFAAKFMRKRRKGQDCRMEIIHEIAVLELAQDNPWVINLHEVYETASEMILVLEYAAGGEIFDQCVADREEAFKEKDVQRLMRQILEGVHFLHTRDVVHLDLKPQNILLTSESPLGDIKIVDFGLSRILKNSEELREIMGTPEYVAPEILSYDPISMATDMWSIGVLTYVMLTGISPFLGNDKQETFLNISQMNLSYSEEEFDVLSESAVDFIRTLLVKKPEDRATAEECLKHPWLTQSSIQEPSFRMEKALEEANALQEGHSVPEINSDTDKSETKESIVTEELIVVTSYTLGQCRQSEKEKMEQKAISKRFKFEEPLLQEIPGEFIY
Method: as §1

MOLM-13 = assay: Cell viability assay, MOLM-13; assay type: cell-based; conditions: Homo sapiens
MEC-1 = assay: Cell viability assay, MEC-1; assay type: cell-based; conditions: Homo sapiens, MEC1
SET-2 = assay: Cell viability assay, SET-2; assay type: cell-based; conditions: Homo sapiens
HEK293T = assay: Cell viability assay, HEK293T (non-cancer cell line); assay type: cell-based; conditions: Homo sapiens, HEK-293T
HL-60 = assay: Cell viability assay, HL-60; assay type: cell-based; conditions: Homo sapiens
SKNO-1 = assay: Cell viability assay, SKNO-1; assay type: cell-based
RIVA = assay: Cell viability assay, RIVA; assay type: cell-based
SKMM2 = assay: Cell viability assay, SKMM2; assay type: cell-based; conditions: Homo sapiens, SK-MM-2
RS4; 11 = assay: Cell viability assay, RS4; 11; assay type: cell-based; conditions: Homo sapiens
MM-M1 = assay: Cell viability assay, MM-M1; assay type: cell-based
NALM-6 = assay: cells; conditions: Homo sapiens, NALM-6, 72 h
MDSL = assay: cells; conditions: 72 h
NALM-6 SF3B1 K666N = assay: cells; conditions: Homo sapiens, NALM-6, 72 h
K562 SF3B1 K666N = assay: cells; conditions: Homo sapiens, K562, 72 h
HEL92.1.7 = assay: cells; conditions: Homo sapiens, HEL 92.1.7, 72 h
[1] = multiple myeloma (Example 90 table)
[2] = multiple myeloma, cell viability, 72 hours
[3] = lymphoma, cell viability, 72 hours

## c1cc(-c2ccc3nc(N4CCOCC4)ncc3c2)nc(Nc2cnn(C3CCNCC3)c2)n1 [Example 27]
KMS12BM; [1]
  IC50: 2.81 µM
K562; K562, chronic myeloid leukemia (Example 90 table)
  IC50: 8.71 µM
MV-4-11; MV-4-11, acute myeloid leukemia (Example 90 table)
  IC50: 0.321 µM
HEL; acute myeloid leukemia (Example 90 table)
  IC50: > 100 µM
U266B1; U266B1, multiple myeloma (Example 90 table)
  IC50: 12.6 µM
DDR1
  IC50: < 0.05 µM
KMS12PE; [1]
  IC50: 2.81 µM
OCI-AML3; OCI-AML3, acute myeloid leukemia (Example 90 table)
  IC50: 0.886 µM
BJAB; lymphoma (Example 90 table)
  IC50: 12.1 µM
OPM2; OPM2, multiple myeloma (Example 90 table)
  IC50: 6.85 µM
LP1; LP1, multiple myeloma (Example 90 table)
  IC50: 1.11 µM
RPMI8226; RPMI8226, multiple myeloma (Example 90 table)
  IC50: 2.7 µM
MOLT4; MOLT-4, acute lymphoblastic leukemia (Example 90 table)
  IC50: > 100 µM
Jurkat; acute lymphoblastic leukemia (Example 90 table)
  IC50: 6.14 µM
TF1; TF1, acute myeloid leukemia (Example 90 table)
  IC50: 15 µM
Kasumi-1; Kasumi-1, acute myeloid leukemia (Example 90 table)
  IC50: 0.53 µM
MYLK4; enzymatic activity assay, read-out: IC50 MYLK4
  IC50: < 0.05 µM
THP-1; THP-1, acute myeloid leukemia (Example 90 table)
  IC50: 1.15 µM
STK17A
  IC50: < 0.05 µM
MOLM-13; MOLM-13, acute myeloid leukemia (Example 90 table)
  IC50: 0.196 µM
MEC-1; MEC-1, lymphoma (Example 90 table)
  IC50: 14.2 µM
SET-2; SET-2, acute myeloid leukemia (Example 90 table)
  IC50: 0.648 µM
HEK293T; non-hematological cell line (Example 90 table)
  IC50: > 100 µM
HL-60; HL-60, HL60, acute myeloid leukemia (Example 90 table)
  IC50: 5 µM
SKNO-1; SKNO-1, acute myeloid leukemia (Example 90 table)
  IC50: 14.8 µM
RIVA; lymphoma (Example 90 table)
  IC50: 9.2 µM
SKMM2; SKMM2, multiple myeloma (Example 90 table)
  IC50: 6.62 µM
RS4; 11; RS4-11, RS411, acute lymphoblastic leukemia (Example 90 table)
  IC50: 10.1 µM
MM-M1; MM-M1, multiple myeloma (Example 90 table)
  IC50: 8.07 µM

## CC(C)NC(=O)c1ccc(Nc2nccc(-c3ccc4nc(N5CCCC5)ncc4c3)n2)cc1 [Example 7]
KMS12BM; [2]
  IC50: 2.47 µM
K562; K562, chronic myeloid leukemia, cell viability, 72 hours
  IC50: 4.79 µM
MV-4-11; MV-4-11, acute myeloid leukemia, cell viability, 72 hours
  IC50: 3.69 µM
HEL; acute myeloid leukemia, cell viability, 72 hours
  IC50: 3.6 µM
U266B1; U266B1, multiple myeloma, cell viability, 72 hours
  IC50: > 100 µM
KMS12PE; [2]
  IC50: > 100 µM
OCI-AML3; OCI-AML3, acute myeloid leukemia, cell viability, 72 hours
  IC50: > 100 µM
BJAB; [3]
  IC50: > 100 µM
OPM2; OPM2, multiple myeloma, cell viability, 72 hours
  IC50: 23.1 µM
LP1; LP1, multiple myeloma, cell viability, 72 hours
  IC50: 31.6 µM
RPMI8226; RPMI8226, multiple myeloma, cell viability, 72 hours
  IC50: 8.96 µM
NALM-6
  IC50: 5.5 µM
MOLT4; MOLT-4, MOLT4, acute lymphoblastic leukemia, cell viability, 72 hours
  IC50: 16.1 µM
Jurkat; acute lymphoblastic leukemia, cell viability, 72 hours
  IC50: 25.7 µM
MDSL
  IC50: > 100 µM
TF1; TF1, acute myeloid leukemia, cell viability, 72 hours
  IC50: > 100 µM
Kasumi-1; Kasumi-1, acute myeloid leukemia, cell viability, 72 hours
  IC50: 8.1 µM
MYLK4
  IC50: 0.05 to 0.1 µM
THP-1; THP-1, acute myeloid leukemia, cell viability, 72 hours
  IC50: 20 µM
STK17A
  IC50: < 0.05 µM
MOLM-13; MOLM-13, acute myeloid leukemia, cell viability, 72 hours
  IC50: 0.924 µM
MEC-1; MEC-1, lymphoma, cell viability, 72 hours
  IC50: > 100 µM
NALM-6 SF3B1 K666N
  IC50: 0.908 µM
K562 SF3B1 K666N
  IC50: 0.182 µM
SET-2; SET-2, acute myeloid leukemia, cell viability, 72 hours
  IC50: 3.71 µM
HEK293T; non-hematological cell line, cell viability, 72 hours
  IC50: > 100 µM
HL-60; HL-60, acute myeloid leukemia, cell viability, 72 hours
  IC50: > 100 µM
SKNO-1; SKNO-1, acute myeloid leukemia, cell viability, 72 hours
  IC50: 16.9 µM
RIVA; [3]
  IC50: > 100 µM
SKMM2; SKMM2, multiple myeloma, cell viability, 72 hours
  IC50: > 100 µM
RS4; 11; RS4, 11, acute lymphoblastic leukemia, cell viability, 72 hours
  IC50: 8.37 µM
HEL92.1.7
  IC50: 0.769 µM
MM-M1; MM-M1, multiple myeloma, cell viability, 72 hours
  IC50: > 100 µM
